Experimental data published in patent US9918488B2, “Method for sterilizing drinks contaminated with acetic acid bacteria” (LANXESS Deutschland GmbH, priority 2014, dated 2018).
In brackets after ≈: the same amount, converted by molar mass.

Experiments:
[1] = test system: mixture of Asaia bogorensis, Asaia lannaensis, Gluconobacter oxydans and Gluconacetobacter liquefaciens; settings: individual active ingredient; substrate iced tea; 200 cfu/mL per bacterium in the mixture
Excerpt: (§1) A drink was contaminated with a particular amount of a mixture of microorganisms and a mixture of preservatives was investigated for efficacy compared to the individual substances. The mixture of bacteria is composed of Asaia bogorensis, Asaia lannaensis, Gluconobacter oxydans and Gluconacetobacter liquefaciens.
(§2) The following relationships apply: QA/Qa+QB/Qb+QC/Qc=SI • Qa=concentration of substance A which is the MIC • Qb=concentration of substance B which is the MIC • Qc=concentration of substance C which is the MIC • QA=concentration of substance A in the concentration of A/B/C at which microbial growth is suppressed • QB=concentration of substance B in the concentration of A/B/C at which microbial growth is suppressed • QC=concentration of substance C the concentration of A/B/C at which microbial growth is suppressed • SI=Synergy Index • SI=1 means additivity • SI>1 means antagonism • SI<1 means synergism

[2] = test system: mixture of Asaia bogorensis, Asaia lannaensis, Gluconobacter oxydans and Gluconacetobacter liquefaciens; experiment: microbe, parasite or virus in culture; settings: 168 h, read-out: MIC ppm after one week
Excerpt: as §1, §2

| SMILES | MIC ppm after one week [1] [µg/mL] | MIC [2] [µg/mL] |
| --- | --- | --- |
| O=S([O-])OS(=O)[O-].[K+].[K+] [Potassium disulphite, potassium disulphite] | 60 | 60 |
| C/C=C/C=C/C(=O)[O-].[K+] [Potassium sorbate, potassium sorbate] | – | 750 |
| O=C([O-])c1ccccc1.[Na+] [Sodium benzoate, sodium benzoate] | 550 | – |
| COC(=O)OC(=O)OC [Dimethyl dicarbonate, dimethyl dicarbonate] | 300 (≈ 2240 µM) | 300 (≈ 2240 µM) |
